{
  "source": "ChEMBL document CHEMBL2429766",
  "about": "“Keap calm, and carry on covalently” (J Med Chem, 2013)",
  "key": {"[1]": {"target": "NAD(P)H dehydrogenase [quinone] 1 (Mus musculus) (UniProt Q64669)", "sequence (Q64669 whole entry)": "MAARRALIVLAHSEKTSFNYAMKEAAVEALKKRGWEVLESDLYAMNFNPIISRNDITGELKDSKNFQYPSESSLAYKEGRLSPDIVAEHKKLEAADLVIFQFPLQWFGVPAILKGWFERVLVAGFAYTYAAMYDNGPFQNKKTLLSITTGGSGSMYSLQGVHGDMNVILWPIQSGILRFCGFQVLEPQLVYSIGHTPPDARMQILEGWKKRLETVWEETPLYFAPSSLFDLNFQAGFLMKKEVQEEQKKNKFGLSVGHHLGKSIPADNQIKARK", "assay": "Induction of NQO1 activity in mouse hepatoma cells", "format": "cell-based"}, "[2]": {"assay": "Antiinflammatory activity in mouse macrophages assessed as inhibition of IFN-gamma-induced nitric oxide production after 48 hrs by Griess method", "format": "functional, cell-based", "conditions": "Macrophage"}, "[3]": {"assay": "Cytotoxicity against mouse Hepa-1c1c7 cells after 48 hrs", "format": "cell-based", "conditions": "read-out: LD50"}, "[4]": {"target": "NAD(P)H dehydrogenase [quinone] 1 (Mus musculus) (UniProt Q64669)", "assay": "Induction of NQO1 activity in mouse Hepa-1c1c7 cells after 48 hrs by Prochaska method", "format": "cell-based"}},
  "data": [
    {"compound": "CS(=O)(=O)[C@H]1CC2CC1[C@H](N=C=S)C2", "note": "(relative stereo)", "values": [
      {"measurement": "CD", "setting": "[1]", "result": 0.2, "unit": "µM"}
    ]},
    {"compound": "CC1(C)CC[C@]2(C(=O)O)CC[C@]3(C)C(=CC[C@@H]4[C@@]5(C)C=CC(=O)C(C)(C)[C@@H]5CC[C@]43C)[C@@H]2C1", "values": [
      {"measurement": "IC50", "setting": "[2]", "result": 7.1, "unit": "µM"}
    ]},
    {"compound": "N#CCCCCN=C=S", "values": [
      {"measurement": "CD", "setting": "[1]", "result": 2, "unit": "µM"}
    ]},
    {"compound": "CC[S+]([O-])C(=O)N(CCCC[S+](C)[O-])C1CCCCC1", "note": "(stereo not given)", "values": [
      {"measurement": "CC50 at 48 h", "setting": "[3]", "result": "> 200", "unit": "µM"},
      {"measurement": "CD", "setting": "[4]", "result": 64, "unit": "µM"}
    ]},
    {"compound": "CSC(=O)CCCCN=C=S", "values": [
      {"measurement": "CD", "setting": "[1]", "result": 2.8, "unit": "µM"}
    ]},
    {"compound": "CC(=O)[C@H]1CC2CC1[C@H](N=C=S)C2", "note": "(relative stereo)", "values": [
      {"measurement": "CD", "setting": "[1]", "result": 0.3, "unit": "µM"}
    ]},
    {"compound": "CC[S+]([O-])C(=O)N(CCCC[S+](C)[O-])Cc1ccc(F)cc1F", "note": "(stereo not given)", "values": [
      {"measurement": "CC50 at 48 h", "setting": "[3]", "result": "> 50", "unit": "µM"},
      {"measurement": "CD", "setting": "[4]", "result": 7.3, "unit": "µM"}
    ]},
    {"compound": "O[C@@H]1CC2CC1C[C@@H]2N=C=S", "note": "(stereo not given in full)", "values": [
      {"measurement": "CD", "setting": "[1]", "result": 19, "unit": "µM"}
    ]},
    {"compound": "CC1(C)CC[C@]2(C(=O)O)CC[C@]3(C)C(=CC[C@@H]4[C@@]5(C)CC[C@H](O)C(C)(C)[C@@H]5CC[C@]43C)[C@@H]2C1", "note": "[OLEANOLIC_ACID]", "values": [
      {"measurement": "IC50", "setting": "[2]", "result": "> 40", "unit": "µM"}
    ]},
    {"compound": "COC(=O)CCCCN=C=S", "values": [
      {"measurement": "CD", "setting": "[1]", "result": 2.8, "unit": "µM"}
    ]},
    {"compound": "CS(=O)(=O)[C@@H]1CCC[C@@H](CN=C=S)C1", "note": "(relative stereo)", "values": [
      {"measurement": "CD", "setting": "[1]", "result": 0.5, "unit": "µM"}
    ]},
    {"compound": "CCCCC(=O)CCCCN=C=S", "values": [
      {"measurement": "CD", "setting": "[1]", "result": 2, "unit": "µM"}
    ]},
    {"compound": "CC(=O)[C@H]1CC2CC1C[C@@H]2N=C=S", "note": "(stereo not given in full)", "values": [
      {"measurement": "CD", "setting": "[1]", "result": 0.4, "unit": "µM"}
    ]},
    {"compound": "CC1(C)CC[C@]2(C(=O)O)CC[C@]3(C)[C@H](C(=O)C=C4[C@@]5(C)C=C(C#N)C(=O)C(C)(C)[C@@H]5CC[C@]43C)[C@@H]2C1", "note": "[BARDOXOLONE]", "values": [
      {"measurement": "IC50", "setting": "[2]", "result": 0.0004, "unit": "µM"}
    ]},
    {"compound": "CC(=O)CCCCN=C=S", "values": [
      {"measurement": "CD", "setting": "[1]", "result": 0.2, "unit": "µM"}
    ]},
    {"compound": "CC[S+]([O-])C(=O)N(CCCC[S+](C)[O-])C1CC1", "note": "(stereo not given)", "values": [
      {"measurement": "CC50 at 48 h", "setting": "[3]", "result": "> 200", "unit": "µM"},
      {"measurement": "CD", "setting": "[4]", "result": 43, "unit": "µM"}
    ]},
    {"compound": "COC(=O)[C@H]1CC2CC1[C@H](N=C=S)C2", "note": "(stereo not given in full)", "values": [
      {"measurement": "CD", "setting": "[1]", "result": 1.6, "unit": "µM"}
    ]},
    {"compound": "CC[S+]([O-])C(=O)N(CCCC[S+](C)[O-])Cc1ccccc1", "note": "(stereo not given)", "values": [
      {"measurement": "CC50 at 48 h", "setting": "[3]", "result": "> 200", "unit": "µM"},
      {"measurement": "CD", "setting": "[4]", "result": 13, "unit": "µM"}
    ]},
    {"compound": "CC1(C)CC[C@]2(C(=O)O)CC[C@]3(C)[C@H](C(=O)C=C4[C@@]5(C)C=CC(=O)C(C)(C)[C@@H]5CC[C@]43C)[C@@H]2C1", "values": [
      {"measurement": "IC50", "setting": "[2]", "result": 0.17, "unit": "µM"}
    ]},
    {"compound": "CS(=O)(=O)[C@H]1CC[C@@H](N=C=S)CC1", "values": [
      {"measurement": "CD", "setting": "[1]", "result": 0.4, "unit": "µM"}
    ]},
    {"compound": "O=[N+]([O-])[C@H]1CC2CC1C[C@@H]2N=C=S", "note": "(stereo not given in full)", "values": [
      {"measurement": "CD", "setting": "[1]", "result": 1.1, "unit": "µM"}
    ]},
    {"compound": "CC[S+]([O-])C(=O)N(CCCC[S+](C)[O-])c1ccccc1", "note": "(stereo not given)", "values": [
      {"measurement": "CC50 at 48 h", "setting": "[3]", "result": "> 200", "unit": "µM"},
      {"measurement": "CD", "setting": "[4]", "result": 43, "unit": "µM"}
    ]},
    {"compound": "CC(=O)[C@@H]1CC2CC1[C@H](N=C=S)C2", "note": "(relative stereo)", "values": [
      {"measurement": "CD", "setting": "[1]", "result": 0.8, "unit": "µM"}
    ]},
    {"compound": "CC[S+]([O-])C(=O)N(CCCC[S+](C)[O-])Cc1cccc2ccccc12", "note": "(stereo not given)", "values": [
      {"measurement": "CC50 at 48 h", "setting": "[3]", "result": "> 50", "unit": "µM"},
      {"measurement": "CD", "setting": "[4]", "result": 5.3, "unit": "µM"}
    ]},
    {"compound": "CC[S+]([O-])C(=O)N(CCCC[S+](C)[O-])Cc1ccc(C(C)(C)C)cc1", "note": "(stereo not given)", "values": [
      {"measurement": "CC50 at 48 h", "setting": "[3]", "result": 32, "unit": "µM"},
      {"measurement": "CD", "setting": "[4]", "result": 3.8, "unit": "µM"}
    ]},
    {"compound": "CC[S+]([O-])C(=O)N(CCCC[S+](C)[O-])Cc1ccc(-c2ccccc2)cc1", "note": "(stereo not given)", "values": [
      {"measurement": "CC50 at 48 h", "setting": "[3]", "result": 16, "unit": "µM"},
      {"measurement": "CD", "setting": "[4]", "result": 2.8, "unit": "µM"}
    ]},
    {"compound": "CC1(C)CC[C@]2(C(=O)O)CC[C@]3(C)C(=CC[C@H]4C3(C)CC[C@H]3C(C)(C)C(=O)C(O)=C[C@@]34C)[C@@H]2C1", "note": "(single isomer, unassigned)", "values": [
      {"measurement": "IC50", "setting": "[2]", "result": 37, "unit": "µM"}
    ]},
    {"compound": "N#C[C@H]1CC2CC1C[C@@H]2N=C=S", "note": "(stereo not given in full)", "values": [
      {"measurement": "CD", "setting": "[1]", "result": 0.6, "unit": "µM"}
    ]},
    {"compound": "COC(=O)[C@H]1CC2CC1C[C@@H]2N=C=S", "note": "(stereo not given in full)", "values": [
      {"measurement": "CD", "setting": "[1]", "result": 0.7, "unit": "µM"}
    ]},
    {"compound": "CP(C)(=O)CCCCN=C=S", "values": [
      {"measurement": "CD", "setting": "[1]", "result": 0.4, "unit": "µM"}
    ]},
    {"compound": "CC[S+]([O-])C(=O)N(C)CCCC[S+](C)[O-]", "note": "(stereo not given)", "values": [
      {"measurement": "CC50 at 48 h", "setting": "[3]", "result": "> 200", "unit": "µM"},
      {"measurement": "CD", "setting": "[4]", "result": 94, "unit": "µM"}
    ]},
    {"compound": "CCCN(CCCC[S+](C)[O-])C(=O)[S+]([O-])CC", "note": "(stereo not given)", "values": [
      {"measurement": "CC50 at 48 h", "setting": "[3]", "result": "> 200", "unit": "µM"},
      {"measurement": "CD", "setting": "[4]", "result": 35, "unit": "µM"}
    ]},
    {"compound": "CC(O)[C@H]1CC2CC1C[C@@H]2N=C=S", "note": "(stereo not given in full)", "values": [
      {"measurement": "CD", "setting": "[1]", "result": 0.5, "unit": "µM"}
    ]},
    {"compound": "CS(=O)(=O)[C@H]1CC2CC1C[C@@H]2N=C=S", "note": "(stereo not given in full)", "values": [
      {"measurement": "CD", "setting": "[1]", "result": 0.7, "unit": "µM"}
    ]},
    {"compound": "CS(=O)(=O)[C@@H]1CCC[C@H](CN=C=S)C1", "note": "(relative stereo)", "values": [
      {"measurement": "CD", "setting": "[1]", "result": 0.4, "unit": "µM"}
    ]},
    {"compound": "C[S@+]([O-])CCCCN=C=S", "values": [
      {"measurement": "CD", "setting": "[1]", "result": 0.2, "unit": "µM"}
    ]},
    {"compound": "CCCCCCN=C=S", "values": [
      {"measurement": "CD", "setting": "[1]", "result": 15, "unit": "µM"}
    ]},
    {"compound": "CS(=O)(=O)[C@@H]1CC2CC1[C@H](N=C=S)C2", "note": "(relative stereo)", "values": [
      {"measurement": "CD", "setting": "[1]", "result": 1, "unit": "µM"}
    ]},
    {"compound": "CC1(C)CC[C@]2(C(=O)O)CC[C@]3(C)C(=CC(=O)[C@@H]4[C@@]5(C)C=CC(=O)C(C)(C)[C@@H]5CC[C@]43C)[C@@H]2C1", "values": [
      {"measurement": "IC50", "setting": "[2]", "result": 1.4, "unit": "µM"}
    ]},
    {"compound": "O=C(O)CCCCN=C=S", "values": [
      {"measurement": "CD", "setting": "[1]", "result": 2.2, "unit": "µM"}
    ]}
  ]
}
